Assay results reported in PubChem BioAssay (NCI).
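Compound exposure: 48 hours, 5 concentrations, 96-well plates. GI50 marks 50% less growth. At the TGI there is no net growth.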

Assays:
Assay in all cases: inhibition of tumour cell growth, NCI panel, 48 h
PC-3 prostate = tested on: PC-3 prostate
K-562 leukemia = tested on: K-562 leukemia
IGROV1 ovarian = tested on: IGROV1 ovarian
SK-OV-3 ovarian = tested on: SK-OV-3 ovarian
NCI/ADR-RES ovarian = tested on: NCI/ADR-RES ovarian
NCI-H23 lung = tested on: NCI-H23 lung
M14 melanoma = tested on: M14 melanoma
HL-60(TB) leukemia = tested on: HL-60(TB) leukemia
LOX IMVI melanoma = tested on: LOX IMVI melanoma
RXF 393 renal = tested on: RXF 393 renal
HOP-92 NSCLC = tested on: HOP-92 NSCLC
SW-620 colon = tested on: SW-620 colon
SF-295 CNS = tested on: SF-295 CNS
SNB-19 CNS = tested on: SNB-19 CNS
SR leukemia = tested on: SR leukemia
HCT-15 colon = tested on: HCT-15 colon
CAKI-1 renal = tested on: CAKI-1 renal
SF-268 CNS = tested on: SF-268 CNS
CCRF-CEM leukemia = tested on: CCRF-CEM leukemia
T-47D breast = tested on: T-47D breast
BT-549 breast = tested on: BT-549 breast
UO-31 renal = tested on: UO-31 renal
SF-539 CNS = tested on: SF-539 CNS
MCF7 breast = tested on: MCF7 breast
OVCAR-4 ovarian = tested on: OVCAR-4 ovarian
DU-145 prostate = tested on: DU-145 prostate
KM12 colon = tested on: KM12 colon
HT29 colon = tested on: HT29 colon
MOLT-4 leukemia = tested on: MOLT-4 leukemia
TK-10 renal = tested on: TK-10 renal
HS 578T breast = tested on: HS 578T breast
OVCAR-8 ovarian = tested on: OVCAR-8 ovarian
ACHN renal = tested on: ACHN renal
U251 CNS = tested on: U251 CNS
NCI-H460 lung = tested on: NCI-H460 lung
COLO 205 colon = tested on: COLO 205 colon
MDA-MB-231 breast = tested on: MDA-MB-231 breast
786-0 renal = tested on: 786-0 renal
UACC-257 melanoma = tested on: UACC-257 melanoma
SK-MEL-28 melanoma = tested on: SK-MEL-28 melanoma
NCI-H522 lung = tested on: NCI-H522 lung
MDA-MB-435 = tested on: MDA-MB-435
HCC-2998 colon = tested on: HCC-2998 colon
HCT-116 colon = tested on: HCT-116 colon
EKVX NSCLC = tested on: EKVX NSCLC
SNB-75 CNS = tested on: SNB-75 CNS
RPMI-8226 leukemia = tested on: RPMI-8226 leukemia
OVCAR-3 ovarian = tested on: OVCAR-3 ovarian
A549 NSCLC = tested on: A549 NSCLC
SK-MEL-2 melanoma = tested on: SK-MEL-2 melanoma
SK-MEL-5 melanoma = tested on: SK-MEL-5 melanoma
NCI-H226 lung = tested on: NCI-H226 lung
MALME-3M melanoma = tested on: MALME-3M melanoma
UACC-62 melanoma = tested on: UACC-62 melanoma
A498 renal = tested on: A498 renal
HOP-62 NSCLC = tested on: HOP-62 NSCLC
SN12C renal = tested on: SN12C renal
OVCAR-5 ovarian = tested on: OVCAR-5 ovarian

O=C(O)c1ccc(S(=O)(=O)Nc2ccc3oc4c(c3c2)C(=O)CCC4)cc1
GI50 (PC-3 prostate): > 100 µM | TGI (PC-3 prostate): > 100 µM | GI50 (K-562 leukemia): > 100 µM | TGI (K-562 leukemia): > 100 µM | GI50 (IGROV1 ovarian): > 100 µM | TGI (IGROV1 ovarian): > 100 µM | GI50 (SK-OV-3 ovarian): > 100 µM | TGI (SK-OV-3 ovarian): > 100 µM | GI50 (NCI/ADR-RES ovarian): > 100 µM | TGI (NCI/ADR-RES ovarian): > 100 µM | GI50 (NCI-H23 lung): > 100 µM | TGI (NCI-H23 lung): > 100 µM | GI50 (M14 melanoma): > 100 µM | TGI (M14 melanoma): > 100 µM | GI50 (HL-60(TB) leukemia): > 100 µM | TGI (HL-60(TB) leukemia): > 100 µM | GI50 (LOX IMVI melanoma): > 100 µM | TGI (LOX IMVI melanoma): > 100 µM | GI50 (RXF 393 renal): > 100 µM | TGI (RXF 393 renal): > 100 µM | GI50 (HOP-92 NSCLC): > 100 µM | TGI (HOP-92 NSCLC): > 100 µM | GI50 (SW-620 colon): > 100 µM | TGI (SW-620 colon): > 100 µM | GI50 (SF-295 CNS): > 100 µM | TGI (SF-295 CNS): > 100 µM | GI50 (SNB-19 CNS): > 100 µM | TGI (SNB-19 CNS): > 100 µM | GI50 (SR leukemia): > 100 µM | TGI (SR leukemia): > 100 µM | GI50 (HCT-15 colon): > 100 µM | TGI (HCT-15 colon): > 100 µM | GI50 (CAKI-1 renal): > 100 µM | TGI (CAKI-1 renal): > 100 µM | GI50 (SF-268 CNS): > 100 µM | TGI (SF-268 CNS): > 100 µM | GI50 (CCRF-CEM leukemia): > 100 µM | TGI (CCRF-CEM leukemia): > 100 µM | GI50 (T-47D breast): > 100 µM | TGI (T-47D breast): > 100 µM | GI50 (BT-549 breast): > 100 µM | TGI (BT-549 breast): > 100 µM | GI50 (UO-31 renal): > 100 µM | TGI (UO-31 renal): > 100 µM | GI50 (SF-539 CNS): > 100 µM | TGI (SF-539 CNS): > 100 µM | GI50 (MCF7 breast): > 100 µM | TGI (MCF7 breast): > 100 µM | GI50 (OVCAR-4 ovarian): > 100 µM | TGI (OVCAR-4 ovarian): > 100 µM | GI50 (DU-145 prostate): > 100 µM | TGI (DU-145 prostate): > 100 µM | GI50 (KM12 colon): > 100 µM | TGI (KM12 colon): > 100 µM | GI50 (HT29 colon): > 100 µM | TGI (HT29 colon): > 100 µM | GI50 (MOLT-4 leukemia): > 100 µM | TGI (MOLT-4 leukemia): > 100 µM | GI50 (TK-10 renal): > 100 µM | TGI (TK-10 renal): > 100 µM | GI50 (HS 578T breast): > 100 µM | TGI (HS 578T breast): > 100 µM | GI50 (OVCAR-8 ovarian): > 100 µM | TGI (OVCAR-8 ovarian): > 100 µM | GI50 (ACHN renal): > 100 µM | TGI (ACHN renal): > 100 µM | GI50 (U251 CNS): > 100 µM | TGI (U251 CNS): > 100 µM | GI50 (NCI-H460 lung): > 100 µM | TGI (NCI-H460 lung): > 100 µM | GI50 (COLO 205 colon): > 100 µM | TGI (COLO 205 colon): > 100 µM | GI50 (MDA-MB-231 breast): > 100 µM | TGI (MDA-MB-231 breast): > 100 µM | GI50 (786-0 renal): > 100 µM | TGI (786-0 renal): > 100 µM | GI50 (UACC-257 melanoma): > 100 µM | TGI (UACC-257 melanoma): > 100 µM | GI50 (SK-MEL-28 melanoma): > 100 µM | TGI (SK-MEL-28 melanoma): > 100 µM | GI50 (NCI-H522 lung): > 100 µM | TGI (NCI-H522 lung): > 100 µM | GI50 (MDA-MB-435): > 100 µM | TGI (MDA-MB-435): > 100 µM | GI50 (HCC-2998 colon): > 100 µM | TGI (HCC-2998 colon): > 100 µM | GI50 (HCT-116 colon): > 100 µM | TGI (HCT-116 colon): > 100 µM | GI50 (EKVX NSCLC): > 100 µM | TGI (EKVX NSCLC): > 100 µM | GI50 (SNB-75 CNS): > 100 µM | TGI (SNB-75 CNS): > 100 µM | GI50 (RPMI-8226 leukemia): > 100 µM | TGI (RPMI-8226 leukemia): > 100 µM | GI50 (OVCAR-3 ovarian): > 100 µM | TGI (OVCAR-3 ovarian): > 100 µM | GI50 (A549 NSCLC): > 100 µM | TGI (A549 NSCLC): > 100 µM | GI50 (SK-MEL-2 melanoma): > 100 µM | TGI (SK-MEL-2 melanoma): > 100 µM | GI50 (SK-MEL-5 melanoma): > 100 µM | TGI (SK-MEL-5 melanoma): > 100 µM | GI50 (NCI-H226 lung): > 100 µM | TGI (NCI-H226 lung): > 100 µM | GI50 (MALME-3M melanoma): > 100 µM | TGI (MALME-3M melanoma): > 100 µM | GI50 (UACC-62 melanoma): > 100 µM | TGI (UACC-62 melanoma): > 100 µM | GI50 (A498 renal): > 100 µM | TGI (A498 renal): > 100 µM | GI50 (HOP-62 NSCLC): > 100 µM | TGI (HOP-62 NSCLC): > 100 µM | GI50 (SN12C renal): > 100 µM | TGI (SN12C renal): > 100 µM | GI50 (OVCAR-5 ovarian): > 100 µM | TGI (OVCAR-5 ovarian): > 100 µM
